Results as given in ChEMBL document CHEMBL1201862, “PubChem BioAssay data set” (2004).
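All cell lines were grown in 96-well plates and treated with compound for 48 hours. GI50 = concentration required for 50% inhibition of growth.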 Calls of active or inactive are those of the source. No stated cut-off is given here; in the data, active = GI50 up to about 1.1 µM and inactive = higher.

How the values were obtained:
Experiment in all cases: inhibition of tumour cell growth, NCI panel, 48 h
HCT-15 = tested on: HCT-15
HOP-92 = tested on: HOP-92
SK-MEL-2 = tested on: SK-MEL-2
NCI-H460 = tested on: NCI-H460
786-0 = tested on: 786-0
LOX IMVI = tested on: LOX IMVI
HT-29 = tested on: HT-29
NCI-H522 = tested on: NCI-H522
SNB-75 = tested on: SNB-75
SK-MEL-5 = tested on: SK-MEL-5
SF-295 = tested on: SF-295
CCRF-CEM = tested on: CCRF-CEM
SK-OV-3 = tested on: SK-OV-3
SF-268 = tested on: SF-268
SN12C = tested on: SN12C
SR = tested on: SR

| SMILES | GI50 (HCT-15) [µM] | GI50 (HOP-92) | GI50 (SK-MEL-2) | GI50 (NCI-H460) | GI50 (786-0) | GI50 (LOX IMVI) | GI50 (HT-29) | GI50 (NCI-H522) | GI50 (SNB-75) | GI50 (SK-MEL-5) | GI50 (SF-295) | GI50 (CCRF-CEM) | GI50 (SK-OV-3) | GI50 (SF-268) | GI50 (SN12C) | GI50 (SR) |
| --- | --- | --- | --- | --- | --- | --- | --- | --- | --- | --- | --- | --- | --- | --- | --- | --- |
| CC1COS(=O)N1c1ccccc1 (configuration not stated) | > 100 | > 100 µM (inactive) | > 100 µM (inactive) | > 100 µM (inactive) | > 100 µM (inactive) | > 100 µM (inactive) | > 100 µM (inactive) | > 100 µM (inactive) | > 100 µM (inactive) | > 100 µM (inactive) | > 100 µM (inactive) | > 100 µM (inactive) | > 100 µM (inactive) | > 100 µM (inactive) | – | – |
| Cc1ccc(C(=O)C#Cc2cnc(O)nc2O)cc1 | 13.8 | 18.6 µM (inactive) | 14.4 µM (inactive) | 16.7 µM (inactive) | 13.4 µM (inactive) | 3.92 µM (inactive) | 21.5 µM (inactive) | – | 19.1 µM (inactive) | 13.6 µM (inactive) | 29.2 µM (inactive) | 3.44 µM (inactive) | 25.2 µM (inactive) | 13.1 µM (inactive) | 4.55 µM (inactive) | – |
| O=c1[nH]cc(COCC(O)CO)c(=O)[nH]1 (configuration not stated) | > 100 | > 100 µM (inactive) | > 100 µM (inactive) | > 100 µM (inactive) | > 100 µM (inactive) | > 100 µM (inactive) | > 100 µM (inactive) | > 100 µM (inactive) | > 100 µM (inactive) | > 100 µM (inactive) | > 100 µM (inactive) | > 100 µM (inactive) | > 100 µM (inactive) | > 100 µM (inactive) | > 100 µM (inactive) | – |
| Clc1c(Cl)c2c(Cl)c(Cl)c1C[PH](c1ccccc1)(c1ccccc1)CC[PH](c1ccccc1)(c1ccccc1)Cc1c(Cl)c(Cl)c(c(Cl)c1Cl)C[PH](c1ccccc1)(c1ccccc1)CC[PH](c1ccccc1)(c1ccccc1)C2 | 8.39 | 2.26 µM (inactive) | 2.16 µM (inactive) | 2.77 µM (inactive) | 4.67 µM (inactive) | 2.52 µM (inactive) | 2.21 µM (inactive) | 2.56 µM (inactive) | 3.46 µM (inactive) | 1.67 µM (inactive) | 3.35 µM (inactive) | 2.46 µM (inactive) | 6.84 µM (inactive) | 3.39 µM (inactive) | 3.28 µM (inactive) | – |
| O=C1CC2CCN(C(=O)c3ccccc3)CC2CCN1.O=C1CCC2CC(C(=O)c3ccccc3)CCC2CN1 (configuration not stated) | > 100 | – | > 100 µM (inactive) | > 100 µM (inactive) | > 100 µM (inactive) | – | > 100 µM (inactive) | > 100 µM (inactive) | > 100 µM (inactive) | 42.6 µM (inactive) | > 100 µM (inactive) | > 100 µM (inactive) | > 100 µM (inactive) | > 100 µM (inactive) | > 100 µM (inactive) | > 100 µM (inactive) |
| CCOC(=O)C1C(c2ccc(Br)cc2)N(Cc2ccccc2)C(c2ccc(Br)cc2)C(C(=O)OC)S1(=O)=O (configuration not stated) | > 100 | – | > 100 µM (inactive) | > 100 µM (inactive) | 32.3 µM (inactive) | > 100 µM (inactive) | 66.8 µM (inactive) | 50.6 µM (inactive) | 21.3 µM (inactive) | – | 35.4 µM (inactive) | 40.4 µM (inactive) | > 100 µM (inactive) | 39.6 µM (inactive) | > 100 µM (inactive) | 34.4 µM (inactive) |
| C=CCc1cc(OC)c(O)c(C(=O)/C=C/c2ccc(OC)c(OC)c2)c1 | – | – | 13.3 µM (inactive) | 30.1 µM (inactive) | 18.2 µM (inactive) | 16.3 µM (inactive) | 16.4 µM (inactive) | 1.86 µM (inactive) | 22.5 µM (inactive) | 15.3 µM (inactive) | 16.1 µM (inactive) | 9.98 µM (inactive) | 28.5 µM (inactive) | 24.4 µM (inactive) | – | – |
| Cc1nn(-c2ccccc2)c2nc(N3CCOCC3)nnc12 | 65 | – | 51.3 µM (inactive) | > 100 µM (inactive) | > 100 µM (inactive) | > 100 µM (inactive) | > 100 µM (inactive) | – | 40.3 µM (inactive) | 49.2 µM (inactive) | > 100 µM (inactive) | > 100 µM (inactive) | > 100 µM (inactive) | > 100 µM (inactive) | > 100 µM (inactive) | – |
| O=C1NC(=O)C(=Cc2c3ccccc3cc3ccccc23)C(=O)N1 | > 100 | > 100 µM (inactive) | – | > 100 µM (inactive) | > 100 µM (inactive) | > 100 µM (inactive) | 55.1 µM (inactive) | > 100 µM (inactive) | – | > 100 µM (inactive) | – | 59.3 µM (inactive) | > 100 µM (inactive) | > 100 µM (inactive) | > 100 µM (inactive) | – |
| CCCNC(=O)C(C)(Cl)C(=O)c1ccccc1O (configuration not stated) | > 100 | – | > 100 µM (inactive) | > 100 µM (inactive) | > 100 µM (inactive) | – | – | > 100 µM (inactive) | > 100 µM (inactive) | > 100 µM (inactive) | – | > 100 µM (inactive) | > 100 µM (inactive) | > 100 µM (inactive) | > 100 µM (inactive) | > 100 µM (inactive) |
| CC(C)N(C(=O)C12C3C4C1(I)C1C2C3(I)C41C(=O)N(C(C)C)C(C)C)C(C)C (configuration not stated) | > 43.3 | > 100 µM (inactive) | > 100 µM (inactive) | > 100 µM (inactive) | > 45.7 µM (inactive) | > 43.5 µM (inactive) | > 100 µM (inactive) | > 75.9 µM (inactive) | > 73.1 µM (inactive) | > 100 µM (inactive) | > 100 µM (inactive) | > 41.8 µM (inactive) | > 100 µM (inactive) | > 100 µM (inactive) | > 100 µM (inactive) | – |
| CCCCCNC(=O)C1C(=O)N(CCCCC)C(=O)/C1=N\N (configuration not stated) | 59.2 | 37.8 µM (inactive) | 35.2 µM (inactive) | 78.5 µM (inactive) | > 100 µM (inactive) | – | 83.8 µM (inactive) | 31.6 µM (inactive) | – | 29 µM (inactive) | 30.5 µM (inactive) | 49.2 µM (inactive) | – | 63.8 µM (inactive) | 54.2 µM (inactive) | – |
| O=C1NC(=O)C(C(=O)C(=O)Nc2cccc(C(F)(F)F)c2)C(=O)N1 | > 100 | – | > 100 µM (inactive) | > 100 µM (inactive) | > 100 µM (inactive) | > 100 µM (inactive) | – | > 100 µM (inactive) | 52.8 µM (inactive) | > 100 µM (inactive) | – | > 100 µM (inactive) | > 100 µM (inactive) | > 100 µM (inactive) | – | – |
| CN(CCN(C)C(=O)CCn1cc(F)c(=O)[nH]c1=O)C(=O)CCn1cc(F)c(=O)[nH]c1=O | > 100 | – | > 100 µM (inactive) | > 100 µM (inactive) | > 100 µM (inactive) | > 100 µM (inactive) | > 100 µM (inactive) | 3.16 µM (inactive) | 36.2 µM (inactive) | > 100 µM (inactive) | > 100 µM (inactive) | > 100 µM (inactive) | – | > 100 µM (inactive) | > 100 µM (inactive) | > 100 µM (inactive) |
